# Source: patent publication US20040176387A1, “Method of treating peripheral vascular diseases, peripheral neuropathies, and autonomic neuropathies” (Pfizer Inc, priority 2000, published 2004)
# Key:
# Assay type in all cases: in vivo, human
# [1] = Sildenafil treatment of diabetic foot ulcer in patients (case reports)
# Text: During the treatment of-the erectile dysfunction it was noted that the foot ulcer was healing. This foot ulcer began approximately two years prior and the patient had been through vascular studies, had seen vascular surgeons, podiatrists, and had been in wound care clinics with minimal results at best. They had also been hospitalized for approximately a month on IV antibiotics, etc. and the threat was very real that the patient was going to require a below the knee amputation. The ulcer would appear to be healing at times only to reoccur to its pretreatment size and depth.
# [2] = Sildenafil treatment of erectile dysfunction in patients (case reports)
# Protocol: Patient #2 was suffering from chronic changes of both lower extremities secondary to peripheral vascular disease and diabetes mellitus. […] Patient #4 suffered from erectile dysfunction. They also suffered from onychiomycosis (fungal infection of the nailbed). They were placed on sildenafil treatment taking one 50 mg pill on an as-needed basis.
# [3] = Sildenafil treatment of chronic lower extremity changes secondary to peripheral vascular disease (case report); conditions: Patient #2; diabetes mellitus
# Text: Patient #2 was suffering from chronic changes of both lower extremities secondary to peripheral vascular disease and diabetes mellitus.
# [4] = tested on: onychiomycosis (fungal infection of the nailbed); assay: Sildenafil treatment of onychiomycosis (fungal infection of the nailbed) (case report)
# Text: In regards to other uses of cycli guanosine 3′,5′-monophosphate type five (cGMP PDE5) inhibitors, including the compound sildenafil, for which we have shown is effective in the treatment of diabetic foot ulcers, it is also within the concept of the present invention to treat other peripheral vascular diseases such as Raynaud's Phenomenon, including CREST syndrome, autoimmune diseases such as systemic lupus erythematosis, rheumatoid diseases and diabetic retinopathies. The treatment of the present invention would also be beneficial in peripheral and autonomic neuropathies or any other disease entity that results from small vessel disease and directly large vessel disease. […] The patient in this case was requesting treatment for erectile dysfunction and again the inventor discovered this unexpected beneficial result. The inventor has observed such results in varied diseases which have the common element of peripheral vascular disease or peripheral neuropathy. The beneficial effect of the method is believed to be due to increase vascular flow of the small vessels which aided the body in healing itself. Patient #4 suffered from erectile dysfunction. They also suffered from onychiomycosis (fungal infection of the nailbed). They were placed on sildenafil treatment taking one 50 mg pill on an as-needed basis.
# [5] = Patient #4, one 50 mg pill on an as-needed basis
smiles,measurement,setting,value
"CCCc1nn(C)c2c(=O)[nH]c(-c3cc(S(=O)(=O)N4CCN(C)CC4)ccc3OCC)nc12 [sildenafil, 5-[2-ethoxy-5-(4-methylpiperazin 1-ylsulphonyl)-phenyl]-1,6-dihydro-1-methyl-3-propylpyrazolo [4,3-d] pyrimidine-7-one]",diabetic foot ulcer size after sildenafil treatment began,"[1]; Patient #1, insulin dependent diabetic, sildenafil taken for erectile dysfunction, before daily dosing",the ulcer was decreasing in the size
same,resolution of diabetic foot ulcer,"[1]; Patient #1, 50 mg of sildenafil once a day, ulcer began approximately two years prior",complete resolution of the diabetic food ulcer in one month
same,reoccurrence of diabetic foot ulcer,"[1]; Patient #1, continued on 50 mg once a day for the past two years",without reoccurrence
same,effectiveness in the treatment of foot ulcers related to diabetes,"[1]; general statement, diabetic patients",very effective
same,erectile dysfunction,"[2]; Patient #2, diabetes mellitus and peripheral vascular disease",significantly improve
same,erectile dysfunction,[2]; [5],improved
same,chronic changes of both lower extremities secondary to peripheral vascular disease,[3],significantly improved or resolved completely
same,fungal infection (onychiomycosis),[4]; [5],cured
same,"onychiomycosis, particularly of the lower extremity","[4]; treated exclusively with sildenafil, without antifungal medication",resolved completely
